Data reported in PubChem BioAssay (NCI).
Values joined by “and” are separate entries in the source; they are usually repeats but may differ in a detail not shown here. Equal values may be shown once.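 Five compound concentrations were applied to cells in 96-well plates for 48 hours; endpoints were derived by simple linear interpolation of the resulting dose-response curve. The concentration for 50% growth inhibition is given as GI50. At the TGI there is no net growth.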

Legend:
Experiment in all cases: inhibition of tumour cell growth, NCI panel, 48 h
786-0 renal = test system: 786-0 renal
ACHN renal = test system: ACHN renal
HOP-92 NSCLC = test system: HOP-92 NSCLC
HS 578T breast = test system: HS 578T breast
HT29 colon = test system: HT29 colon
LOX IMVI melanoma = test system: LOX IMVI melanoma
NCI-H460 lung = test system: NCI-H460 lung
NCI-H522 lung = test system: NCI-H522 lung
PC-3 prostate = test system: PC-3 prostate
RXF 393 renal = test system: RXF 393 renal
SF-268 CNS = test system: SF-268 CNS
SW-620 colon = test system: SW-620 colon
T-47D breast = test system: T-47D breast

Structure (SMILES) | TGI (786-0 renal) | TGI (ACHN renal) | TGI (HOP-92 NSCLC) | TGI (HS 578T breast) | TGI (HT29 colon) | TGI (LOX IMVI melanoma) | TGI (NCI-H460 lung) | TGI (NCI-H522 lung) | TGI (PC-3 prostate) | TGI (RXF 393 renal) | TGI (SF-268 CNS) | TGI (SW-620 colon) | TGI (T-47D breast) | GI50 (NCI-H460 lung)
C=CCC1CC(n2cc(C)c(=O)[nH]c2=O)OC1CO[Si](C)(C)C(C)(C)C (stereo unspecified) | 28.8 µM | 29.8 µM | 31 µM | 29.4 µM | 30.9 µM | 26.2 µM | 38.9 µM | 23.1 µM | 25.1 µM | 15.9 µM | 30.9 µM | 31.9 µM | 26.8 µM | –
O=C(/C=C/c1ccc(-c2ccccc2)cc1)NCc1ccc(C(=O)NCc2ccccc2)cc1 | > 100 µM | > 100 µM | > 100 µM | > 100 µM | > 100 µM | > 100 µM | > 100 µM | > 100 µM | > 100 µM | 67.3 µM | > 100 µM | > 100 µM | > 100 µM | –
CC(=N\N)/C(C)=N/N=C(C)/C(C)=N/N | > 100 µM | > 100 µM | > 100 µM | > 100 µM | > 100 µM | > 100 µM | > 100 µM | > 100 µM | > 100 µM | > 100 µM | > 100 µM | > 100 µM | > 100 µM | –
O=C(O)Cc1ccc(Nc2nc3cc(C(F)(F)F)ccc3nc2C(=O)O)cc1 | > 100 µM | > 100 µM | > 100 µM | > 100 µM | > 100 µM | > 100 µM | > 100 µM | > 100 µM | > 100 µM | > 100 µM | > 100 µM | > 100 µM | > 100 µM | –
CN(Cc1cnc2nc(N)nc(N)c2n1)c1ccc(C(=O)N[C@@H](CCC(=O)O)C(=O)O)cc1 | > 250 µM | > 233 µM | 229 µM and > 250 µM | > 250 µM | 240 µM and > 250 µM | > 250 µM | > 245 µM | 155 µM and > 250 µM | > 250 µM | 215 µM and > 250 µM | 206 µM and > 250 µM | 221 µM and > 250 µM | > 250 µM | 0.00707 µM
